Test results published in patent US8859583B2, “Bicyclic heterocyclic compounds as protein tyrosine kinase inhibitors” (Astex Therapeutics Limited, priority 2007, dated 2014).
Counter-ions that a name gives are not always drawn.

How the values were obtained:
[1] = tested on: LP-1 cell line (DSMZ no.: ACC 41) derived from human multiple myeloma; assay: Cell-based pERK ELISA in LP-1 cells; conditions: LP-1, FGF-1/Heparin stimulated, for the 1 μM bound: or at least 50% inhibition at a concentration of 1 μM
Experimental: Enzyme buffer A: 8 mM MOPS, pH 7.0, 0.2 mM EDTA, 10 mM MgAcetate Enzyme buffer B: 8 mM MOPS, pH 7.0, 0.2 mM EDTA, 2.5 mM MnCl2, 10 mM MgAcetate Enzyme buffer C: 8 mM Mops, pH 7.0, 0.2 mM EDTA, 10 mM MnCl2, 10 mM MgAcetate. Cell-Based pERK ELISA Method
LP-1 or JIM-1 multiple myeloma cells were seeded in 96 well plates at 1×10^6 cells/ml in 200 ul per well in serum free media. HUVEC cells were seeded at 2.5×10^5 cells/ml and allowed to recover for 24 h prior to transfer to serum free media. Cells were incubated for 16 h at 37° C. prior to the addition of a test compound for 30 minutes. Test compounds were administered at a 0.1% final DMSO concentration. Following this 30 minute incubation a FGF-1/Heparin (FGF-1 at 100 ng/ml final and Heparin at 100 ug/ml) mixture or VEGF^165 (100 ug/ml) was added to each of the wells for a further 5 minutes. The media was removed and 50 ul ERK ELISA lysis buffer (R and D Systems DuoSet ELISA for pERK and Total ERK #DYC-1940E, DYC-1018E) added. ELISA plates and standards were prepared according to the standard DuoSet protocols and the relative amounts of pERK to total ERK in each sample calculated according to the standard curve.
In particular, compounds of the invention were tested against the LP-1 cell line (DSMZ no.: ACC 41) derived from human multiple myeloma.

[2] = tested on: Ba/F3-TEL-FGFR3 cell line; assay: Ba/F3-TEL-FGFR3 cell proliferation assay; type: cell-based; conditions: 72 hours, Alamar Blue; read-out: IC50 against Ba/F3-TEL-FGFR3 cell line
Experimental: Ba/F3-TEL-FGFR3 & Ba/F3 (WT) Cell Proliferation Assays
Stably transfected Ba/F3-TEL-FGFR3 cells were plated out into black 96-well tissue culture plates with clear bottoms in RPMI medium containing 10% FBS and 0.25 mg/ml G418 at a density of 5×10^3 cells/well (200 μl per well). The parental wild-type Ba/F3 cells (DSMZ no.: ACC 300) were plated out into black 96-well tissue culture plates with clear bottoms in RPMI medium containing 10% FBS and 2 ng/ml mouse IL-3 (R&D Systems) at a density of 2.5×10^3 cells/well (200 μl per well). Plates were placed in an incubator overnight before adding the compounds the following day. Dilutions of compounds were made in DMSO starting at 10 mM and were diluted into the wells to give a final DMSO concentration of 0.1% in assay. Compounds were left on the cells for 72 hours before the plates were removed from the incubator and 20 μl of Alamar Blue™ (Biosource) was added to each well. Plates were placed in the incubator for 4-6 hours before reading plates at 535 nm (excitation)/590 nm (emission) on a Fusion plate reader (Packard).
In particular, compounds of the invention were tested against the Ba/F3-TEL-FGFR3 cell line.

IC50 [1]	melting point	SMILES	other results
< 20 µM		CC(CO)NC(=O)c1ccn2c(-c3cccc(NC(=O)NCC(F)(F)F)c3)cnc2c1 (stereo not shown) [Example 17, 3-{3-[3-(2,2,2-Trifluoro-ethyl)-ureido]-phenyl}-imidazo[1,2-a]pyridine-7-carboxylic acid (2-hydroxy-1-methyl-ethyl)-amide]	
	170 °C	O=C(NCC(F)(F)F)Nc1cccc(-c2cnc3cc(C(=O)NCCCc4cnc[nH]4)ccn23)c1 [Example 19, 3-{3-[2,2,2-Trifluoro-ethyl)-ureido]-imidazo[1,2-a]pyridine-7-[3-(1H-imidazol-4-yl)]-propanamide]	
< 20 µM		CNC(=O)c1ccn2c(-c3cccc(NC(=O)NCC(F)(F)F)c3)cnc2c1 [Example 2, 3-[3-[3-(2,2,2-Trifluoroethyl)ureido]-phenyl}imidazo[1,2-a]pyridine-7-carboxylic acid methylamide]	
	> 260 °C	Cn1cncc1CNC(=O)c1ccn2c(-c3cccc(NC(=O)NCC(F)(F)F)c3)cnc2c1 [Example 20, 3-{3-[2,2,2-Trifluoro-ethyl)-ureido]-imidazo[1,2-a]pyridine-7-[5-(1-N-methyl-imidazole)]-methylamide]	
< 20 µM		O=C(NCC(F)(F)F)Nc1cccc(-c2cnc3cc(C(=O)N4CCC(O)C4)ccn23)c1 (stereo not shown) [Example 7, 1-{3-[7-(3-Hydroxy-pyrrolidine-1-carbonyl)-imidazo[1,2-a]pyridin-3-yl]-phenyl}-3-(2,2,2-trifluoro-ethyl)-urea]	
		CN(C)C(=O)c1ccn2c(-c3cccc(NC(=O)NCC(F)(F)F)c3)cnc2c1 [Example 1, 3-[3-[3-(2,2,2-Trifluoroethyl)ureido]-phenyl}imidazo[1,2-a]pyridine-7-carboxylic acid dimethylamide Hydrochloride]	IC50 [2]: < 20 µM
	260 °C	Cn1cncc1NC(=O)c1ccn2c(-c3cccc(NC(=O)NCC(F)(F)F)c3)cnc2c1 [Example 18, 3-{3-[2,2,2-Trifluoro-ethyl)-ureido]-imidazo[1,2-a]pyridine-7-[5-(1-N-methyl-imidazole)]-amide]	
